Results as given in article PMC8110578, “Phenylethynylbenzyl-modified biguanides inhibit pancreatic cancer tumor growth” (Scientific Reports, 2021).
Read-outs that look alike come from different tables or passages of the source.

Legend:
[1] = tested on: AH375 cells; test: Tumor sphere formation, AH375 cells; assay type: cell-based, mouse; conditions: 24 h treatment
[2] = tested on: Panc1 cells; test: Growth assay (crystal violet), Panc1 cells; assay type: cell-based; conditions: Homo sapiens, PANC-1, 72 h
[3] = tested on: KP4 cells; test: Growth assay (crystal violet), KP4 cells; assay type: cell-based, human; conditions: for IC50: KP4 cells
Experimental: All chemicals were purchased from Aldrich Chemicals in their highest purity and used without further purification. Deuterated dimethylsulfoxide (DMSO-d^6) and deuterated chloroform (CDCl3) were purchased from CDN Isotopes. NMR spectra were recorded on Bruker advance 400 and 100 spectrometers. Coupling constants are given in hertz (Hz) and chemical shifts are given in parts per million (ppm, δ) measured relative to the residual solvent (the multiplicity of the signals are given as s: singlet, d: doublet, t: triplet, and m: multiplet). High-resolution mass spectra (HRMS) were recorded on a TSQ Quantum Ultra (Thermo Scientific) triple quadrupole with accurate mass option instrument (Université de Montréal Mass Spectrometry Facility). MS experiences were performed using an UltrafleXtreme MALDI TOF/TOF mass spectrometer equipped with a SmartBeam II Nd:Yag/355 nm laser operating at 1 kHz and providing a laser focus down to 20 μm in diameter (Bruker Daltonics, Billerica, MA). The data acquisition for MS was performed in positive ion mode using the linear geometry with flexControl 3.4 (Bruker Daltonics, Billerica, MA). Acceleration voltage was set to + 25 kV and all other instrumental parameters (delayed extraction parameters, source voltages, detector gain, laser energy, etc.) were optimized for maximum S/N for the drug compounds. L-α-Phosphatidylcholine was purchased from Avanti Polar Lipids. Transport and depolarization studies as well as absorbance measurements were performed on a Varian Cary Eclipse fluorescence spectrophotometer. The hemolysis assays were performed on a Fluostar Optima plate reader. Single crystals of C18H18F3N5O3S were obtained from chloroform. A suitable crystal was selected and analysed on a Bruker Venture Metaljet diffractometer. Crystal violet retention assay was used for cell growth assays and IC50 were determined using Prism (GraphPad). NAD/NADH quantitation colorimetric kit (#K337-100) from Biovision was used according to manufacturer’s instructions. ECAR (extracellular acidification rate) and OCR of KP4 cells (oxygen consumption rate) were measured on a Seahorse XF-24 (Agilent).
Experimental. KP4 (Riken RCB1005) and PSN1 (ATCC: CRM-CRL-3211), were cultured in Dulbecco's modified Eagle's medium (DMEM) (Wisent, St-Bruno, QC) supplemented with 10 % of fetal bovine serum (FBS) (Wisent). HPNE hTERT (ATCC: CRL1423) were cultured in a mix of 75% DMEM without glucose (Sigma Cat#. D-5030) with additional 2 mM L-glutamine and 1.5 g/L sodium bicarbonate, 25% Medium M3 Base (Incell Corp. Cat# M300F- 500), fetal bovine serum 5% (wisent 10 ng/ml human recombinant EGF (Sigma-Aldrich), 5.5 mM D-glucose (Sigma-Aldrich), 750 ng/ml puromycin (Sigma-Aldrich). For dose-response assays, cells were seeded in 96 well plates (company). After 24 h, treatments were applied and cells were grown for 3 more days. Crystal violet retention assay used for cell growth assays were described previously^2. The data is expressed as relative absorbance of crystal violet extracted from the cells and diluted in 10 % acetic acid. IC50 were determined using Prism (GraphPad). Tumor spheres were grew according to Ferbeyre et al^3.

[4] = tested on: KP4 cells; test: Mitochondrial morphology by anti-TOMM20 immunofluorescence, KP4 cells; assay type: cell-based, human; conditions: 24 h, 1b 15µM, metformin 5mM
Experimental: The action of biguanides in mitochondria can lead to morphological alterations that include disorganisation of the cristae. […].  Figure 4 Effects of biguanides on mitochondrial morphology. (A) Mitochondrial morphology in KP4 cells 24 h following the indicated treatments as visualised by anti-TOMM20 immunofluorescence. Scale bar = […]. […] The data represents the mean of 2 biological replicates and for each replicate three counts of 50 cells were done. n = 300 cells per treatment. Data was analyzed with one way ANOVA followed by Tukey HSD test.
Experimental. KP-4 cells were seeded at 50% confluency on slides in 6-well plates. […] After 24h of treatment, cells were washed twice with PBS1X then were fixed during 10 minutes at 4°C with 4% paraformaldehyde. Cells were washed again three times with PBS1X then permeabilized during 5 min in PBS1X, 2%BSA, 0,2%Triton X-100. Slides were washed three times 10 minutes with 1XPBS, 2%BSA, then incubated overnight with primary antibody anti-TOMM20 (Rabbit, 1:150, Santa Cruz, sc-11415) diluted in 1XPBS, 2%BSA. Slides were washed three times 10 minutes with 1XPBS, 2%BSA then incubated 1 hour at RT with anti-Rabbit-AlexaFluor568 secondary antibody (Goat, 1:1000, ThermoFisher Scientific). Cells were washed four times 10 minutes with 1XPBS then mounted with Vectashield mouting media containing DAPI (Vector laboratories H-1200). […]

[5] = HPTS assay, internal pH of EYPC liposomes; conditions: 5 mM (50 mol% relative to 10 mM EYPC), NaOH pulse at 300 s
Experimental: Figure 2 (A) Partition of compounds in an U-tube experiment. Concentration of biguanide on the trans-side of the U-tube at 48 h and 72 h at 25 °C, after addition of 250 µM of biguanide on the cis-side. (B) Variation in the internal pH of HPTS-containing EYPC liposomes. Intravesicular solution: 1 mM HPTS, 10 mM HEPES, and 100 mM NaCl, adjusted to pH = 7.4, and extravesicular solution: 10 mM HEPES and 100 mM NaCl, adjusted to pH = 7.4. Biguanidiums were injected after 50 s at 5 mM (50 mol% relative to the 10 mM EYPC concentration), a NaOH pulse was induced at 300 s, and the liposomes were lysed with Triton-X at 550 s. Each curve is the average of three independent measurements. (C) Fluorescence of safranin O in the EYPC liposomes. Biguanidium salts were injected at 5 mM (50 mol% relative to the 10 mM EYPC concentration) at 50 s. Each curve is the average of three independent measurements. […] Mitochondrial isolation was performed according to the previously reported protocol.

[6] = Homo sapiens, KP-4, 72 h, 72 hours, read-out: IC50

Compound | Decrease of the number of AH375 spheres ([1]; 5 µM) | IC50 [2] | IC50 [3, 6] | IC50 fold lower than phenformin ([3]; KP4 and Panc1 cells) | IC50 ([3]; 3 days treatment, crystal violet retention assay, read-out: IC50 KP4) | Fold more active than metformin ([3]; conclusion) | Effect on mitochondrial morphology [4] | Change of internal vesicular pH (HPTS) [5] | Decrease of the number of AH375 spheres ([1]; 1 mM)
N=C(N)NC(=N)NCc1ccc(C#Cc2ccccc2)cc1 [1b, 4-(phenylethynyl)benzylbiguanide] | 75% | 15 µM | 6.1 µM | 8–12 fold | 6.13 µM | 1000 fold | punctuated pattern typical of fragmented mitochondria | basification of the internal vesicular pH | 
CN(C)C(=N)NC(=N)N [metformin, 1,1-dimethylbiguanide, reference compound] |  | ~5000 µM | ~5000 µM |  |  |  | loss of the filamentous mitochondrial network | no membrane activity | 50%
